Experimental data: publication PMC3169404, “Inhibitor-bound complexes of dihydrofolate reductase-thymidylate synthase from Babesia bovis” (Acta Crystallographica Section F: Structural Biology and …, 2011)
Values belong to the compound of their own block, whether it stands above or below them.

Key:
[1] = biological target: dihydrofolate reductase-thymidylate synthase from B. bovis (Babesia bovis (Texas T2Bo isolate)); test: crystal structure; three crystal structures of BbDHFR-TS (apo; with dUMP, NADP and pemetrexed; with dUMP, NADP and raltitrexed); space group P1, homodimer in the asymmetric unit; crystals grown at 289 K, data at 100 K
[2] = biological target: T1, BbDHFR-TS (Babesia bovis, UniProt A7ASX7); test: X-ray crystal structures (co-purified 3k2h; cocrystallisation 3nrr); type: binding; conditions: DHFR site; with pemetrexed (3k2h) or raltitrexed (3nrr); oxidation state not stated beyond NADP
T1 construct: gene BBOV_II000780; full length 1-511, N-terminal 6xHis-Smt tag removed by Ulp1 without remnant, expressed in E. coli BL21 (DE3); DHFR about 1-186, 40-residue linker, TS C-terminal 285 residues
T1 sequence (A7ASX7 1-511): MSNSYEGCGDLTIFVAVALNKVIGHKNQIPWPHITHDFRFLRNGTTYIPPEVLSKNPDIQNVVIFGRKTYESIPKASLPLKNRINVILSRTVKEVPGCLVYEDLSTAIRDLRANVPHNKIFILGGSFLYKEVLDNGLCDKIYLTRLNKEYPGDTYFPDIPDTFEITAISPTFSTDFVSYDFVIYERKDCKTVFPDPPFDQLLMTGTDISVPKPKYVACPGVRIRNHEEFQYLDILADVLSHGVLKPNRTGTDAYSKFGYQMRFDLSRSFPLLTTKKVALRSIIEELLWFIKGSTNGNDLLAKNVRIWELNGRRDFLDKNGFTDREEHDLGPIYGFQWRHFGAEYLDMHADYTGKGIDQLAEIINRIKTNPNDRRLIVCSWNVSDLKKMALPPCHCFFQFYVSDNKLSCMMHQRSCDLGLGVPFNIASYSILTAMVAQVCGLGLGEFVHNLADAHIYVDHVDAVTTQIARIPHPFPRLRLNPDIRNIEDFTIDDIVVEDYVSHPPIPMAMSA

[3] = biological target: T1, BbDHFR-TS; test: X-ray crystal structures (soak 3k2h; cocrystallisation 3nrr); type: binding; conditions: TS active site; ternary complex with pemetrexed (3k2h) or raltitrexed (3nrr)
[4] = biological target: T1, BbDHFR-TS; test: X-ray crystal structure, […] Å, cocrystallisation; type: binding; conditions: in both TS site (with dUMP) and DHFR site (with NADP); 5 mM raltitrexed, 2 mM dUMP, 2 mM NADP; 20 mM MgCl2, HEPES pH 7.5, 289 K
[5] = biological target: T1, BbDHFR-TS; test: X-ray crystal structure, […] Å, soak; type: binding; conditions: in both TS site (with dUMP) and DHFR site (with NADP); 2 mM pemetrexed, 2.0 mM dUMP; PEG 8000, CHES pH 9.5, 289 K

stoichiometry N [1]: 2
Compound: dihydrofolate reductase-thymidylate synthase from B. bovis (enzyme)

Compound: NC(=O)c1ccc[n+]([C@@H]2O[C@H](COP(=O)(O)OP(=O)(O)OC[C@H]3O[C@@H](n4cnc5c(N)ncnc54)[C@H](OP(=O)(O)O)[C@@H]3O)[C@@H](O)[C@H]2O)c1 [NADP]
X-ray crystal structures (co-purified 3k2h; cocrystallisation 3nrr) [2]: pemetrexed and NADP bound in the DHFR subunit

Compound: O=c1ccn([C@H]2C[C@H](O)[C@@H](COP(=O)(O)O)O2)c(=O)[nH]1 [dUMP]
X-ray crystal structures (soak 3k2h; cocrystallisation 3nrr) [3]: contains the antifolate pemetrexed and dUMP bound in the TS subunit

Compound: Cc1nc2ccc(CN(C)c3ccc(C(=O)N[C@@H](CCC(=O)O)C(=O)O)s3)cc2c(=O)[nH]1 [RTX, raltitrexed]
X-ray crystal structure, 1.8 Å, cocrystallisation [4]: raltirexed rather than pemetrexed in both folate sites, as well as dUMP and NADP

Compound: Nc1nc(=O)c2c(CCc3ccc(C(=O)N[C@@H](CCC(=O)O)C(=O)O)cc3)c[nH]c2[nH]1 [PTX, pemetrexed]
X-ray crystal structure, 2.2 Å, soak [5]: contains the antifolate pemetrexed and dUMP bound in the TS subunit and pemetrexed and NADP
